Assay: Aqueous solubility of torcetrapib
Assay type: physicochemical
Settings: aqueous environment, at about 22° C. unless otherwise specified
Method: The CETP inhibitor may be any compound capable of inhibiting the cholesteryl ester transfer protein. The CETP inhibitor is typically “sparingly water-soluble,” which means that the CETP inhibitor has a minimum aqueous solubility of less than about 1 to 2 mg/mL at any physiologically relevant pH (e.g., pH 1-8) and at about 22° C. Many CETP inhibitors are “substantially water-insoluble,” which means that the CETP inhibitor has a minimum aqueous solubility of less than about 0.01 mg/mL (or 10 μg/mL) at any physiologically relevant pH (e.g., pH 1-8) and at about 22° C. (Unless otherwise specified, reference to aqueous solubility herein and in the claims is determined at about 22° C.) Compositions of the present invention find greater utility as the solubility of the CETP inhibitors decreases, and thus are preferred for CETP inhibitors with solubilities less than about 10 μg/mL, and even more preferred for CETP inhibitors with solubilities less than about 1 μg/mL. Many CETP inhibitors have even lower solubilities (some even less than 0.1 μg/mL), and require dramatic concentration enhancement to be sufficiently bioavailable upon oral dosing for effective plasma concentrations to be reached at practical doses. […]

- solubility: < 0.04 µg/mL
SMILES: CCOC(=O)N1c2ccc(C(F)(F)F)cc2[C@@H](N(Cc2cc(C(F)(F)F)cc(C(F)(F)F)c2)C(=O)OC)C[C@H]1CC [torcetrapib, [2R,4S]-4-[(3,5-bis-trifluoromethyl-benzyl)-methoxycarbonyl-amino]-2-ethyl-6-trifluoromethyl-3,4-dihydro-2H-quinoline-1-carboxylic acid ethyl ester]
